From PubChem BioAssay (NCI)
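Cells were grown in 96-well plates and exposed to each compound for 48 hours at five concentrations; endpoints were interpolated linearly between bracketing concentrations, or set to the highest concentration if not reached. Definition used: TGI = concentration required for complete inhibition of growth.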

Assays:
Assay in all cases: inhibition of tumour cell growth, NCI panel, 48 h
786-0 renal = system: 786-0 renal
A498 renal = system: A498 renal
A549 NSCLC = system: A549 NSCLC
ACHN renal = system: ACHN renal
BT-549 breast = system: BT-549 breast
CAKI-1 renal = system: CAKI-1 renal
COLO 205 colon = system: COLO 205 colon
DU-145 prostate = system: DU-145 prostate
EKVX NSCLC = system: EKVX NSCLC
HCC-2998 colon = system: HCC-2998 colon
HCT-116 colon = system: HCT-116 colon
HCT-15 colon = system: HCT-15 colon
HOP-62 NSCLC = system: HOP-62 NSCLC
HOP-92 NSCLC = system: HOP-92 NSCLC
K-562 leukemia = system: K-562 leukemia
KM12 colon = system: KM12 colon
M14 melanoma = system: M14 melanoma
MALME-3M melanoma = system: MALME-3M melanoma
MCF7 breast = system: MCF7 breast
MDA-MB-231 breast = system: MDA-MB-231 breast
MDA-MB-435 = system: MDA-MB-435
MDA-N = system: MDA-N
NCI-H226 lung = system: NCI-H226 lung
NCI-H23 lung = system: NCI-H23 lung
NCI-H460 lung = system: NCI-H460 lung
NCI-H522 lung = system: NCI-H522 lung
NCI/ADR-RES ovarian = system: NCI/ADR-RES ovarian
OVCAR-3 ovarian = system: OVCAR-3 ovarian
OVCAR-4 ovarian = system: OVCAR-4 ovarian
OVCAR-5 ovarian = system: OVCAR-5 ovarian
PC-3 prostate = system: PC-3 prostate
RPMI-8226 leukemia = system: RPMI-8226 leukemia
SF-268 CNS = system: SF-268 CNS
SF-295 CNS = system: SF-295 CNS
SK-MEL-2 melanoma = system: SK-MEL-2 melanoma
SK-MEL-28 melanoma = system: SK-MEL-28 melanoma
SK-MEL-5 melanoma = system: SK-MEL-5 melanoma
SK-OV-3 ovarian = system: SK-OV-3 ovarian
SN12C renal = system: SN12C renal
SNB-19 CNS = system: SNB-19 CNS
SNB-75 CNS = system: SNB-75 CNS
T-47D breast = system: T-47D breast
TK-10 renal = system: TK-10 renal
U251 CNS = system: U251 CNS
UACC-257 melanoma = system: UACC-257 melanoma
UACC-62 melanoma = system: UACC-62 melanoma
UO-31 renal = system: UO-31 renal
CCRF-CEM leukemia = system: CCRF-CEM leukemia
HT29 colon = system: HT29 colon
IGROV1 ovarian = system: IGROV1 ovarian
LOX IMVI melanoma = system: LOX IMVI melanoma
MOLT-4 leukemia = system: MOLT-4 leukemia
OVCAR-8 ovarian = system: OVCAR-8 ovarian
RXF 393 renal = system: RXF 393 renal
SF-539 CNS = system: SF-539 CNS
SW-620 colon = system: SW-620 colon

Measured: TGI

CC(C)(C)c1cc(COc2cc(COc3ccc(-c4c5c(nc6c4CCc4ccc(-c7c8ccccc8nc8ccccc78)cc4-6)-c4cc(-c6c7ccccc7nc7ccccc67)ccc4CC5)cc3)cc(OCc3cc(C(C)(C)C)cc(C(C)(C)C)c3)c2)cc(C(C)(C)C)c1
not listed: CCRF-CEM leukemia | HT29 colon | IGROV1 ovarian | LOX IMVI melanoma | MOLT-4 leukemia | OVCAR-8 ovarian | RXF 393 renal | SF-539 CNS | SW-620 colon
> 100 µM: all other assays above

CCN(C(=O)N[C@@H](Cc1ccccc1)C(=O)N[C@@H](CC(C)C)C(=O)NC)c1ccccc1
not listed: A498 renal | SF-268 CNS
> 100 µM: all other assays above
